Measured values published in patent US5011824A, “Rectal motilin preparation” (Kyowa Hakko Kogyo Co., Ltd., priority 1988, dated 1991).

Assay: Intravenous safety of motilin in rats
Format: in vivo
Conditions: 10 mg/kg intravenously
Excerpt: The preparation usually contains a therapeutically effective quantity, suitably about 0.05 to about 5% by weight, preferably about 0.1 to about 2% by weight, of motilin.

motilin
mortality: did not die
